This test deals with T1, Na+-dependent bile acid transport system (Oryctolagus cuniculus, UniProt Q28727).
T1 construct: brush-border membrane vesicles from the ileum of rabbits; from tissue; host or cells: terminal ileum of male New Zealand rabbits, brush-border membrane vesicles
T1 sequence (Q28727 1-347): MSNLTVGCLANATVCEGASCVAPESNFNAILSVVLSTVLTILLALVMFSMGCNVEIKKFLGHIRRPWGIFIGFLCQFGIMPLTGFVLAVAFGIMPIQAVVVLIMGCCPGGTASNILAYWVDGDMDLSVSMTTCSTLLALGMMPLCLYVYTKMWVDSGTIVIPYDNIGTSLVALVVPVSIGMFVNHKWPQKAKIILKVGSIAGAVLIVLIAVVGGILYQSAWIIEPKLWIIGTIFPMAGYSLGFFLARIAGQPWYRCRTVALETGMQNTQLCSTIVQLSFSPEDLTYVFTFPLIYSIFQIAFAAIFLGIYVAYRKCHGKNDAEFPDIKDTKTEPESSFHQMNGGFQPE
As to the kind of experiment: Inhibition of Na+-dependent [3H]taurocholate absorption into brush-border membrane vesicles of the ileum. The test is classed as biochemical, rabbit. As to the method:
The preparation of brush-border membrane vesicles from the intestinal cells of the small intestine was carried out using the so-called Mg^2+ precipitation method. Male New Zealand rabbits (2-2.5 kg body weight) were sacrificed by intravenous injection of 0.5 ml of T-61^R. The small intestine was removed and rinsed with ice-cold physiological saline solution. The terminal 3/10 of the small intestine (measured in the oral-rectal direction, i.e. the terminal ileum, which contains the active Na^+ -dependent bile acid transport system) were used for preparation of the brush-border membrane vesicles. The intestines were frozen at -80° C. under nitrogen in plastic bags. The frozen intestines were thawed in a water bath at 30° C. in order to prepare the membrane vesicles. The mucosa was scraped off and suspended in 60 ml of ice-cold 12 mM trys/HCl buffer (pH 7.1)/300 mM mannitol, 5 mM EGTA/10 mg/l of phenylmethylsulfonyl fluoride/1 mg/l of soybean trypsin inhibitor (32 U/mg)/0.5 mg/l of bovine lung trypsin inhibitor (193 U/mg)/5 mg/l of bacitracin. After diluting to 300 ml with ice-cold distilled water, the suspension was homogenized with ice-cooling for 3 minutes at 75% of maximum power using an Ultraturrax (18 rod, IKA Werk Staufen, Federal Republic of Germany). After addition of 3 ml of 1M MgCl2 solution (final concentration 10 mM), the homogenate was allowed to stand at 0° C. for exactly 1 minute. As a result of addition of Mg^2+, the cell membranes aggregate and precipitate with the exception of the brush-border membranes. After centrifugation at 3,000×g (5,000 rpm, SS-34 rotor) for 15 minutes, the precipitate is discarded and the supernatant which contains the brush-border membranes is centrifuged at 26,700×g (15,000 rpm, SS-34 rotor) for 30 minutes. The supernatant was discarded, and the precipitate was rehomogenized in 60 ml of 12 mM tris/HCl buffer (pH 7.1)/60 mM mannitol, 5 mM EGTA using a Potter Elvejhem homogenizer (Braun Melsungen, 900 rpm, 10 strokes). After addition of 0.1 ml of 1M MgCl2 solution and an incubation time of 15 minutes at 0° C., the mixture was again centrifuged at 3,000×g for 15 minutes. The supernatant was then again centrifuged at […] (15,000 rpm, SS-34 rotor) for 30 minutes. The precipitate was taken up in 30 ml of 10 mM tris/hepes buffer (pH 7.4)/300 mM mannitol and homogeneously resuspended by 20 strokes in a Potter Elvejhem homogenizer at 1,000 rpm. After centrifugation at 48,000×g (20,000 rpm, SS-34 rotor) for 30 minutes, the precipitate was taken up in 0.5 to 2 ml of tris/hepes buffer (pH 7.4)/280 mM mannitol (final concentration 20 mg/ml) and resuspended with the aid of a tuberculin syringe using a 27 gauge needle. The vesicles were either used immediately after preparation for transport investigations or stored at -196° C. in liquid nitrogen in 4 mg portions.
The absorption of substrates into brush-border membrane vesicles was determined by means of the so-called membrane filtration technique. 10 μl of the vesicle suspension (100 μg of protein) were pipetted on the wall of a polystyrene incubation tube (11×70 mm) as a drop which contained the incubation medium together with the corresponding ligands (90 μl ). […] The incubation medium was filtered through a polyvinylidene fluoride membrane filter (SYHV LO 4NS, 0.45 μm, 4 mm .phi., Millipore, Eschborn, Federal Republic of Germany). The transport measurement was begun by mixing the vesicles with the incubation medium. […] After the desired incubation time (customarily 1 min), the transport was stopped by addition of 1 ml of ice-cold stop solution (10 mM tris/hepes, (pH 7.4)/150 mM KCl). The resulting mixture was immediately filtered off with suction in a vacuum of 25 to 35 mbar through a membrane filter made of cellulose nitrate (ME 25, 0.45 μm, 25 mm diameter, Schleicher & Schuell, Dassell, Federal Republic of Germany). The filter was subsequently washed with 5 ml of ice-cold Stop solution.

Where [1] appears, read: Na+-dependent transport component, 50 μM taurocholate.

SMILES strings stand for the structures.

Regarding `C[C@H](CCC(=O)NCCS(=O)(=O)O)[C@H]1CC[C@H]2[C@@H]3[C@H](O)C[C@@H]4C[C@@H](OCCNC(=O)CCCc5ccc(N(CCCl)CCCl)cc5)CC[C@]4(C)[C@H]3C[C@H](O)[C@]12C` [Example 67], 47.5 µM corresponded to half-maximal inhibition (IC50). Also, under setting [1], the 25% effect concentration (IC25) (usually the concentration at which the effect reaches the 25% level) was found to be 24 µM and the IC75 (as a rule, the concentration needed for an effect of 75%) was 270 µM.

Source of the values: patent US5462933A, “Modified bile acid conjugates, and their use as pharmaceuticals” (Hoechst Aktiengesellschaft, priority 1989, dated 1995).
